Source: patent US20240201170A1, “MAINTENANCE AND/OR CULTURE OF TISSUE SLICES IN VITRO OR EX VIVO” (NATIONAL UNIVERSITY OF SINGAPORE, priority 2021, published 2024)

Legend:
[1] = test system: cancer cells within HNSCC patient tumour slices; test: Cancer cell kill: pan-cytokeratin+ / cleaved caspase-3+ cells by dual IHC or IF in drug-treated tumour slices; type: cell-based, human
Procedure: H&E staining and dual IHC were performed on drug-treated and untreated HNSCC slices. Briefly, slices were fixed, processed using the automatic tissue processor, and embedded in paraffin. Paraffin blocks were sectioned and H&E staining was performed. Dual IHC was performed using ChromoPlex 1 Dual Detection (Leica DS9665) with a high pH EDTA-based buffer (ER2, Leica AR9640) for 20 min. A specific cocktail of antibodies was used to identify cancer cell apoptosis, including pan-cytokeratin and cleaved caspase-3 antibody. Standard immunofluorescence were performed with active YAP1. Image acquisition was done using the slide scanning system. The images were processed with a customized analysis profile using the nuclear segmentation method to quantify the percentage of apoptotic cancer cells.

[2] = test system: CD8+ cells in HNSCC tumour slices; test: Flow cytometry of granzyme B expression in CD8+ cells of drug-treated HNSCC patient tumour slices; type: cell-based, human
Procedure: Tumour slices were first manually removed from the hydrogel and digested. Dissociated cells were spun down, washed, and resuspended, and counted using a cell counter. Prior to fixing, cells were stained for surface proteins with fluorophore-conjugated antibodies and fixable dye. The cell suspension were then […]. Compensation was performed using single stains; live cells and singlets were gated by gating on a dye differentiating live and dead cells or on scatter characteristics or both.

N.N.[Cl][Pt][Cl] [cisplatin] was tested, and the apoptotic cancer cells ([1]; Patient 6 (HN358), controls ~5%) was roughly 12%.
pembrolizumab was tested, and the “granzyme B expression in CD8+ cells” value ([2]; Patient 6 (HN358), control 8.9%) was 5.2%, the “granzyme B expression in CD8+ cells” value ([2]; Patient 7 (HN359), compared to control) was “slight increase” and the “cleaved caspase-3 positivity (apoptotic) in cancer cells” value ([1]; Patient 6 (HN358), Day 2, controls ~11%) was roughly 25%. The “tumour kill in drug-treated slices” value ([1]; Patient 7 (HN359)) was “no enhanced tumour kill”.
